From US10017507B2, “Diaza-benzofluoranthrene compounds” (HARBIN PHARMACEUTICAL GROUP CO., LTD. GENERAL …, priority 2015, dated 2018)

molecular target: T1, PDE1A (Homo sapiens, UniProt P54750); assay: In vitro detection of phosphodiesterase (PDE): PDE1A enzyme activity by fluorescence polarization immunoassay; type: biochemical; conditions: human-derived enzyme, cAMP or cGMP substrate; read-out: IC50s for PDE1
T1 construct: purchased SignalChem
Procedure: Test 1: In Vitro Detection of Phosphodiesterase (PDE)
the enzyme activity of PDE1A was determined by detecting the production of AMP/GMP by fluorescence polarization immunoassay, wherein AlexaFluor 633 labeled AMP/GMP was used to replace AMP/GMP to bind with the antibody.
Reaction buffer: 10 mM Tris-HCl, pH 7.5, 5 mM magnesium chloride, 0.01% Brij 35, 1 mM DTT and 1% DMSO;
Enzyme substrate: […] cAMP or cGMP (Ca^2+-calmodulin acts as a cofactor of PDE1A)
Detection reagent: Transcreener® AMP2/GMP2 antibody; AMP2/GMP2 AlexaFluor 633 tracer.
Experimental Procedure and Method:
1. Human-derived enzyme (commercially available from SignalChem) to be tested and substrate were diluted with freshly prepared reaction buffer;
2. The enzyme solution (with a concentration of 3 pM) was added to the holes of the microplates;
3. A series of solutions of the compounds in 100% DMSO (with the desired concentrations) were added to the holes containing the enzyme solution by Echo550, and then the microplates were incubated for 10 minutes at room temperature;
4. The substrate solution was added to the holes containing the enzyme and compounds to start the reaction;
5. The microplates were incubated for 1 hour under room temperature and vibration;
6. The detection mixture (tracer and antibody in stop buffer) was added to stop the enzyme reaction, and the microplates were incubated for 90 minutes under vibration;
7. The equipment EnVision (PerkinElmer), Cy5 FP Ex FP 620, Em S-pol 688/P-pol 688, FP mirror D658fp/D688 was used to detect the reaction mixture, and Ex/Em 620/688 was used to detect the fluorescence polarization.
In the Excel table, the enzyme activity corresponding to the FP signal was found on the AMP/GMP standard curve by reference to the DMSO negative control, and then was converted to product concentration (nM). GraphPad Prism was used to analyze and calculate the IC50 values.

`CC[C@@]12C=C(c3ccc(C)nn3)n3c4c(c5ccccc53)CCN(CCC1)[C@H]42` [Example 9, (4^1S,13aS)-13a-ethyl-12-(6-methylpyridazin-3-yl)-2,3,4^1,5,6,13a-hexahydro-1H-indolo[3,2,1-de]pyrido[3,2,1-ij][1,5]naphthyridine] and `CC[C@@]12C=C(c3noc(C)n3)n3c4c(c5ccccc53)CCN(CCC1)[C@H]42` [Example 20, 3-((4^1S,13aS)-13a-ethyl-2,3,4^1,5,6,13a-hexahydro-1H-indolo[3,2,1-de]pyrido[3,2,1-ij][1,5]naphthyridin-12-yl)-5-methyl-1,2,4-oxadiazole] fall in the same range of IC50: 1 to 20 µM for the first, 1 to 20 µM for the second.

First: CCC/C(=N\OC)C1=C[C@]2(CC)CCCN3CCc4c(n1c1ccccc41)[C@@H]32 [Example 48, 1-((4^1S,13aS)-13a-ethyl-2,3,4^1,5,6,13a-hexahydro-1H-indolo[3,2,1-de]pyrido[3,2,1-ij][1,5]naphthyridin-12-yl)butan-1-one-O-methyl oxime]
Second: (4^1S,13aS)-13a-ethyl-N-(3-methoxylpropyl)-12-(3-methyl-1,2,4-oxadiazol-5-yl)-2,3,4,5,6,13a-hexahydro-1H-indolo[3,2,1-de]pyrido[3,2,1-ij][1,5]naphthyridin-7-sulfonamide [Example 84]
The IC50 of the first is lower: 1 to 20 µM for the first, greater than 100 µM for the second.

`CC[C@@]12C=C(c3nc(C)c(C(=O)OC)o3)n3c4c(c5ccccc53)CCN(CCC1)[C@H]42` [Example 59, Methyl-2-((4^1S,13aS)-13a-ethyl-2,3,4^1,5,6,13a-hexahydro-1H-indolo[3,2,1-de]pyrido[3,2,1-ij][1,5]naphthyridin-12-yl)-4-methyloxazole-5-carbonate] and `CCc1noc(C2=C[C@]3(CC)CCCN4CCc5c(n2c2ccccc52)[C@@H]43)n1` [Example 33, 3-ethyl-5-((4^1S,13aS)-13a-ethyl-2,3,4^1,5,6,13a-hexahydro-1H-indolo[3,2,1-de]pyrido[3,2,1-ij][1,5]naphthyridin-12-yl)-1,2,4-oxadiazole] cannot be ordered by IC50: no more than 1 µM for the first, 1 to 20 µM for the second.

`CC[C@@]12C=C(c3nc(C)co3)n3c4c(c5ccccc53)CCN(CCC1)[C@H]42` [Example 50, 2-((4^1S,13aS)-13a-ethyl-2,3,4^1,5,6,13a-hexahydro-1H-indolo[3,2,1-de]pyrido[3,2,1-ij][1,5]naphthyridin-12-yl)-4-methyloxazole] and `CC[C@@]12C=C(c3nc(C)c(C)o3)n3c4c(c5c(S(=O)(=O)N(C)C)cccc53)CCN(CCC1)[C@H]42` [Example 74, (4^1S,13aS)-12-(4,5-dimethyloxazol-2-yl)-13a-ethyl-N,N-dimethyl-2,3,4^1,5,6,13a-hexahydro-1H-indolo[3,2,1-de]pyrido[3,2,1-ij][1,5]naphthyridin-7-sulfonamide] fall in the same range of IC50: 1 to 20 µM for the first, 1 to 20 µM for the second.

Compared with `CC[C@@]12C=C(c3nc(C)c(C)o3)n3c4c(c5ccccc53)CCN(CCC1)[C@H]42` [Example 52, 2-((4^1S,13aS)-13a-ethyl-2,3,4^1,5,6,13a-hexahydro-1H-indolo[3,2,1-de]pyrido[3,2,1-ij][1,5]naphthyridin-12-yl)-4,5-dimethyloxazole], `CC[C@@]12C=C(c3nc(C)c(C)o3)n3c4c(c5c(S(=O)(=O)NCCCOC)cccc53)CCN(CCC1)[C@H]42` [Example 75, (4^1S,13aS)-12-(4,5-dimethyloxazol-2-yl)-13a-ethyl-N-(3-methoxylpropyl)-2,3,4^1,5,6,13a-hexahydro-1H-indolo[3,2,1-de]pyrido[3,2,1-ij][1,5]naphthyridin-7-sulfonamide] is higher in IC50: no more than 1 µM for the first, 20 to 100 µM for the second. The first is the more potent here.

`CC[C@@]12C=C(c3noc(C4CCN(C(=O)OC(C)(C)C)CC4)n3)n3c4c(c5ccccc53)CCN(CCC1)[C@H]42` [Example 26, Tert-butyl-4-(3-((4^1S,13aS)-13a-ethyl-2,3,4^1,5,6,13a-hexahydro-1H-indolo[3,2,1-de]pyrido[3,2,1-ij][1,5]naphthyridin-12-yl)-1,2,4-oxadiazol-5-yl)piperidine-1-carboxylate] and `CC[C@@]12C=C(c3noc(-c4cccs4)n3)n3c4c(c5ccccc53)CCN(CCC1)[C@H]42` [Example 28, 3-((4^1S,13aS)-13a-ethyl-2,3,4^1,5,6,13a-hexahydro-1H-indolo[3,2,1-de]pyrido[3,2,1-ij][1,5]naphthyridin-12-yl)-5-(thiophen-2-yl)-1,2,4-oxadiazole] cannot be ordered by IC50: greater than 100 µM for the first, greater than 100 µM for the second.

Compared with `CC[C@@]12C=C(c3nc(-c4ccncc4)no3)n3c4c(c5ccccc53)CCN(CCC1)[C@H]42` [Example 31, 5-((4^1S,13aS)-13a-ethyl-2,3,4^1,5,6,13a-hexahydro-1H-indolo[3,2,1-de]pyrido[3,2,1-ij][1,5]naphthyridin-12-yl)-3-(pyridin-4-yl)-1,2,4-oxadiazole], `CC[C@@]12C=C(c3csc(N)n3)n3c4c(c5ccccc53)CCN(CCC1)[C@H]42` [Example 43, 4-((4^1S,13aS)-13a-ethyl-2,3,4^1,5,6,13a-hexahydro-1H-indolo[3,2,1-de]pyrido[3,2,1-ij][1,5]naphthyridin-12-yl)-thiazole-2-amine] is higher in IC50: 1 to 20 µM for the first, 20 to 100 µM for the second.

`CC[C@@]12C=C(c3nc(C)c(C)o3)n3c4c(c5cc(S(=O)(=O)NCCCOC)ccc53)CCN(CCC1)[C@H]42` [Example 72, (4^1S,13aS)-12-(4,5-dimethyloxazol-2-yl)-13a-ethyl-N-(3-methoxylpropyl)-2,3,4^1,5,6,13a-hexahydro-1H-indolo[3,2,1-de]pyrido[3,2,1-ij][1,5]naphthyridin-9-sulfonamide] and `CC[C@@]12C=C(/C=C/C(N)=O)n3c4c(c5ccccc53)CCN(CCC1)[C@H]42` [Example 7, (E)-3-((4^1S,13aS)-13a-ethyl-2,3,4^1,5,6,13a-hexahydro-1H-indolo[3,2,1-de]pyrido[3,2,1-ij][1,5]naphthyridin-12-yl)acrylamide] fall in the same range of IC50: 20 to 100 µM for the first, 20 to 100 µM for the second.

First: CC[C@@]12C=C(c3nc(C)ns3)n3c4c(c5ccccc53)CCN(CCC1)[C@H]42 [Example 39, 5-((4^1S,13aS)-13a-ethyl-2,3,4^1,5,6,13a-hexahydro-1H-indolo[3,2,1-de]pyrido[3,2,1-ij][1,5]naphthyridin-12-yl)-3-methyl-1,2,4-thiadiazole]
Second: CC[C@@]12C=C(c3ccccn3)n3c4c(c5ccccc53)CCN(CCC1)[C@H]42 [Example 11, (4^1S,13aS)-13a-ethyl-12-(pyridin-2-yl)-2,3,4^1,5,6,13a-hexahydro-1H-indolo[3,2,1-de]pyrid o[3,2,1-ij][1,5]naphthyridine]
The IC50 of the first is lower: 1 to 20 µM for the first, 20 to 100 µM for the second. The first is the more potent here.

Compared with “(4^1S,13aS)-13a-ethyl-N-(3-methoxylpropyl)-12-(3-methyl-1,2,4-oxadiazol-5-yl)-2,3,4^1,5,6,13a-hexahydro-1H-indolo[3,2,1-de]pyrido[3,2,1-ij][1,5]naphthyridin-8-sulfonamide [Example 81]”, `CCc1nc(C2=C[C@]3(CC)CCCN4CCc5c(n2c2ccccc52)[C@@H]43)oc1C` [Example 56, 4-ethyl-2-((4^1S,13aS)-13a-ethyl-2,3,4^1,5,6,13a-hexahydro-1H-indolo[3,2,1-de]pyrido[3,2,1-ij][1,5]naphthyridin-12-yl)-5-methyloxazole] is lower in IC50: 20 to 100 µM for the first, no more than 1 µM for the second. The second is the more potent here.

`CC[C@@]12C=C(C(O)C(F)(F)F)n3c4c(c5ccccc53)CCN(CCC1)[C@H]42` (stereo partly drawn) [Example 1, 1-((4^1S,13aS)-13a-ethyl-2,3,4^1,5,6,13a-hexahydro-1H-indolyl[3,2,1-de]pyridyl[3,2,1-ij][1,5]naphthyridine-12-yl)-2,2,2-trifluoroethanol] and `CC[C@@]12C=C(/C=C/C(=O)O)n3c4c(c5ccccc53)CCN(CCC1)[C@H]42` [Example 5, (E)-3-((4^1S,13aS)-13a-ethyl-2,3,4^1,5,6,13a-hexahydro-1H-indolo[3,2,1-de]pyrido[3,2,1-ij][1,5]naphthyridin-12-yl)acrylic acid] cannot be ordered by IC50: greater than 100 µM for the first, greater than 100 µM for the second.

First: CC[C@@]12C=C(c3nc(C)no3)n3c4c(c5ccc(S(=O)(=O)N(C)C)cc53)CCN(CCC1)[C@H]42 [Example 77, (4^1S,13aS)-13a-ethyl-N,N-dimethyl-12-(3-methyl-1,2,4-oxadiazol-5-yl)-2,3,4^1,5,6,13a-hexahydro-1H-indolo[3,2,1-de]pyrido[3,2,1-ij][1,5]naphthyridin-9-sulfonamide]
Second: CC[C@@]12C=C(c3cnc(C)c(C)n3)n3c4c(c5ccccc53)CCN(CCC1)[C@H]42 [Example 14, (4^1S,13aS)-12-(5,6-dimethylpyrazin-2-yl)-13a-ethyl-2,3,4^1,5,6,13a-hexahydro-1H-indolo[3,2,1-de]pyrido[3,2,1-ij][1,5]naphthyridine]
The IC50 of the first is higher: 20 to 100 µM for the first, 1 to 20 µM for the second.

For `CC[C@@]12C=C(c3nc(C)no3)n3c4c(c5ccc(S(=O)(=O)NC)cc53)CCN(CCC1)[C@H]42` [Example 76, (4^1S,13aS)-13a-ethyl-N-methyl-12-(3-methyl-1,2,4-oxadiazol-5-yl)-2,3,4^1,5,6,13a-hexahydro-1H-indolo[3,2,1-de]pyrido[3,2,1-ij][1,5]naphthyridin-9-sulfonamide], the IC50 was 1 to 20 µM.
